Measured values as given in ChEMBL document CHEMBL1135894, “Design and synthesis of a novel and potent series of inhibitors of cytosolic phospholipase A(2) based on a 1,3-disubstituted propan-2-one skeleton” (J Med Chem, 2002).

Test system: HL-60
Assay: Inhibition of [3H]arachidonic acid production by stimulated HL60 cells.
Format: functional, cell-based
Conditions: Homo sapiens

IC50 | SMILES
2.8 µM | CCCCCCCCCCOc1ccc(OCC(=O)COc2ccc(C(=O)O)cc2)cc1
29 µM | CCCCC/C=C\C/C=C\C/C=C\C/C=C\CCCC(=O)C(F)(F)F [ARACHIDONYL TRIFLUOROMETHYLKETONE]
